Source: ChEMBL document CHEMBL1140928, “Glycolipids and benzylammonium lipids as novel antisepsis agents: synthesis and biological characterization” (J Med Chem, 2009)
Activity calls are given as the source filed them. The calls are words filed in the database; no cut-off is given here.

Legend:
[1] = Inhibition of lipid A-mediated TLR4 activation in HEK-Blue-4 cells assessed as inhibition of alkaline phosphatase activity by spectrophotometry; format: cell-based
[2] = Inhibition of lipid A-induced TLR4 activation in HEK-Blue-4 cells assessed as inhibition of alkaline phosphatase activity at 10 uM by spectrophotometry; format: cell-based
Mus musculus [3] = assay: Antisepsis activity in LPS-induced ip dosed C57BL/6J mouse lethal endotoxin shock model assessed as survival after 4 days administered 30 before LPS challenge; format: functional
[4] = target: Intestinal-type alkaline phosphatase (Bos taurus) (UniProt P19111); assay: Inhibition of calf recombinant intestinal alkaline phosphatase at 10 uM
Sequence of Intestinal-type alkaline phosphatase (Bos taurus) (P19111 20-506 limits assumed): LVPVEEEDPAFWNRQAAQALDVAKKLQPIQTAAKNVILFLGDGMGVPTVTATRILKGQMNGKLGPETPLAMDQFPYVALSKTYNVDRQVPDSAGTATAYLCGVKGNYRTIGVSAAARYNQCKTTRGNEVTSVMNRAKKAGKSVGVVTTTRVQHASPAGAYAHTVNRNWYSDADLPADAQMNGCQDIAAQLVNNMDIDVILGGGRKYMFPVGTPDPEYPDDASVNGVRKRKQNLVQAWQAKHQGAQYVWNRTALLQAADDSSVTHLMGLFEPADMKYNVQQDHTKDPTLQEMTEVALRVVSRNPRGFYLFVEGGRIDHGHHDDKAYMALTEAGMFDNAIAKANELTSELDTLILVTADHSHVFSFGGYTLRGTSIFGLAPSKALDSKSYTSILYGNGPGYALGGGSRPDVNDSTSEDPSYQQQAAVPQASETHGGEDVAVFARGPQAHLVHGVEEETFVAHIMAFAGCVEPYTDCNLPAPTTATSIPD

[5] = target: Intestinal-type alkaline phosphatase (Homo sapiens) (UniProt P09923); assay: Inhibition of intestinal alkaline phosphatase in lipid A-stimulated HEK-Blue-4 cells at 10 uM
Sequence of Intestinal-type alkaline phosphatase (Homo sapiens) (P09923 20-503 limits assumed): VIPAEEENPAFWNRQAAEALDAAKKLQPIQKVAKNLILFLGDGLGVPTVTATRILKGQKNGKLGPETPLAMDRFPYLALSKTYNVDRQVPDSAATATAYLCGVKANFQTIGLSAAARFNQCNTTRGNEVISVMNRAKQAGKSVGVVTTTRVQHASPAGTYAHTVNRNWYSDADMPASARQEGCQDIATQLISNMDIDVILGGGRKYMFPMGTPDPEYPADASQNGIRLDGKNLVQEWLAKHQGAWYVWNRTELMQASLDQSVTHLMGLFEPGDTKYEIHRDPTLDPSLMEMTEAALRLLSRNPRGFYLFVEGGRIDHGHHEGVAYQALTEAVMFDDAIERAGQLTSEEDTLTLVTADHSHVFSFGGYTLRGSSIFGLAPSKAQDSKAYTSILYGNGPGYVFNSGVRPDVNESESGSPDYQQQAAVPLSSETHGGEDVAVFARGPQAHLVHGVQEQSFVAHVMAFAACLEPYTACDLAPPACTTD

[6] = Cytotoxicity against HEK-Blue-4 cells assessed as effect on cell viability by Cell-Titre Blue assay; format: cell-based; conditions: human
Mus musculus [7] = assay: Antisepsis activity in LPS-induced C57BL/6J mouse lethal endotoxin shock model assessed as survival after 4 days at 10 mg/kg, ip administered 30 before LPS challenge; format: functional; conditions: for survival at 10 mg/kg: 96 h, route intraperitoneal
Mus musculus [8] = assay: Antisepsis activity in LPS-induced C57BL/6J mouse lethal endotoxin shock model assessed as survival after 4 days at 3 mg/kg, ip administered 30 before LPS challenge; format: functional; conditions: 96 h, route intraperitoneal
Homo sapiens = species on record: Homo sapiens; assay: Inhibition of TNF-alpha-induced alkaline phosphatase activity in HEK-Blue-4 cells at 10 uM by spectrophotometry; format: functional, cell-based
[9] = Cytotoxicity against HEK-Blue-4 cells assessed as diminution of cell viability by Cell-Titre Blue assay; format: cell-based; conditions: human

Row | SMILES | IC50 [1] [µM] | Activity [2] | Activity [4] | Activity [5] | Activity [6] | Activity (Homo sapiens) | further results
1 | CCCCCCCCCCCCCCO[C@H]1[C@@H](OC)O[C@H](CNC2CCCC2)[C@@H](O)[C@@H]1OCCCCCCCCCCCCCC | > 10 | – | – | – | – | – | inhibition [2]: 23%; Activity (Mus musculus [3]): inactive
2 | CCCCCCCCCCCCCCO[C@H]1[C@@H](OC)O[C@H](COC2CCCC2)[C@@H](O)[C@@H]1OCCCCCCCCCCCCCC | > 10 | – | – | – | – | – | –
3 | CCCCCCCCCCCCCCO[C@H]1[C@@H](OC)O[C@H](CN)[C@@H](O)[C@@H]1OCCCCCCCCCCCCCC | 5.49 | Dose-dependent effect | inactive | inactive | Non-toxic | inactive | Activity (Mus musculus [7]): Active; survival at 3 mg/kg (Mus musculus [8]): 100%
4 | CCCCCCCCCCCCCCO[C@H]1[C@@H](OC)O[C@H](C[N+](C)(C)C2CCCC2)[C@@H](O)[C@@H]1OCCCCCCCCCCCCCC.[I-] | 5.01 | Dose-dependent effect | inactive | inactive | Non-toxic | inactive | survival at 10 mg/kg (Mus musculus [7]): 25%
5 | CCCCCCCCCCCCCCO[C@H]1[C@@H](OC)O[C@H](CNC(=O)C2CCCN2)[C@@H](O)[C@@H]1OCCCCCCCCCCCCCC (some centres not stated) | 5.87 | Dose-dependent effect | inactive | – | Non-toxic | – | –
6 | CCCCCCCCCCCCCCO[C@H]1[C@@H](OC)O[C@H](CNOC)[C@@H](O)[C@@H]1OCCCCCCCCCCCCCC | > 10 | – | – | – | – | – | –
7 | CCCCCCCCCCCCCCOc1ccc(C[N+](C)(C)C2CCCC2)cc1OCCCCCCCCCCCCCC.[I-] | 1.68 | Dose-dependent effect | inactive | inactive | – | inactive | Activity [9]: 13%; survival at 10 mg/kg (Mus musculus [7]): 67%
8 | CCOC(=O)C1=CCCC[C@H]1S(=O)(=O)Nc1ccc(F)cc1Cl [RESATORVID] | – | – | – | – | – | – | ED50 (Mus musculus [3]; 96 h): 0.3 mg/kg
